These are literature values, as cited in US20080221049A1, “Free-flowing lyophilized tobramycin formulation” (APP Pharmaceuticals, LLC., priority 2004, published 2008).

Where a name gives a salt, the structure may show the parent alone. Read-outs that look alike come from different tables or passages of the source.

The conditions of this data set: after reconstitution, e.g. with 30 mL Sterile Water for Injection.

Consider `NCC1OC(OC2C(N)CC(N)C(OC3OC(CO)C(O)C(N)C3O)C2O)C(N)CC1O` [Tobramycin sulfate, 0-3-amino-3-deoxy-α-D-glucopyranosyl-(1→4) —O—[2,6-diamino-2,3,6-trideoxy-α-D-ribo-hexopyranosyl-(1→6)]-2-deoxy-L-streptamine, sulfate (2:5)(salt)], for which the “time within which the reconstituted solution should be used” value reads like this: (stored at room temperature) at most 24 h; (stored under refrigeration) at most 96 h.
